From patent publication US9951064B2, “Azaindazole compounds as inhibitors of T790M containing EGFR mutants” (Genentech, Inc., priority 2013, dated 2018)

Columns and labels:
[1] = biological target: T1, EGFR T790M L858R (Homo sapiens, UniProt P00533, L858R/T790M); test: EGFR T790M L858R biochemical assay (Caliper mobility shift); conditions: 5 μM ATP; apparent Ki (Morrison fit) converted by Cheng-Prusoff, Km of ATP 1.3 μM
T1 construct: purchased Life Technologies PV4879
Procedure, shortened: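 Reactions run 30 minutes at room temperature (22 °C), stopped with 80 mM EDTA. Phosphorylated product and substrate separated electrophoretically and quantified by Caliper mobility shift.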

[2] = biological target: T2, EGFR del746-750 T790M (Homo sapiens, UniProt P00533, DEL746-750/T790M); test: EGFR del746-750 T790M biochemical assay (Caliper mobility shift); conditions: 5 μM ATP; apparent Ki (Morrison fit) converted by Cheng-Prusoff, Km of ATP 2.1 μM; read-out: EGFR(T790M/d746-750) Ki
T2 construct: purchased Carna Biosciences 08-528
Procedure: The exemplified compounds described herein were tested according to the assay below. The enzyme data reported in Tables 4-5 is generally a representative of multiple experiments.
Reactions proceed for 30 minutes at room temperature (22° C.) and are terminated with 80 mM 2,2′,2″,2″′-(ethane-1,2-diyldinitrilo)tetraacetic acid (EDTA). Product is detected using the Caliper mobility shift detection method where product and substrate are electrophoretically separated and measured.

[3] = biological target: T3, phosphor-EGFR in H1975(L585R/T790M) mutant EGFR expressing cells (Homo sapiens, UniProt P00533, L858R/T790M); test: H1975 pEGFR MSD cellular assay; format: cell-based; conditions: NCI-H1975 cells, serum starved, 1 hour compound incubation, pEGFR Tyr1068 MSD; read-out: HI975 pEGFR EC50
T3 construct: host or cells: NCI-H1975
Procedure, shortened: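 NCI-H1975 cells, 30,000/well, serum-starved overnight, then treated 1 hour at 37° C with serially diluted compounds in serum-free medium (0.5% DMSO). Lysates captured on anti-phospho-EGFR plates overnight at 4° C, detected with SULFO-TAG anti-total EGFR by electrochemiluminescence. Inhibition vs untreated controls; EC50 from 4-parameter logistic fit.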

[4] = test system: H1975 (EGFR T790M/L858R) cell proliferation; test: H1975 proliferation assay (Cell Titer-Glo); format: cell-based; conditions: Homo sapiens, NCI-H1975, 72 h, NCI-H1975 cells, 72 hour incubation, read-out: H1975 antiproliferative EC50
Procedure: H1975 Proliferation Assays
All cell culture reagents were purchased from Invitrogen/Gibco. Cells are cultured at 37° C. at 5% CO2 and split as recommended by ATCC.

T2 sequence (P00533 with tags, fused parts or gaps DEL746-750/T790M limits assumed): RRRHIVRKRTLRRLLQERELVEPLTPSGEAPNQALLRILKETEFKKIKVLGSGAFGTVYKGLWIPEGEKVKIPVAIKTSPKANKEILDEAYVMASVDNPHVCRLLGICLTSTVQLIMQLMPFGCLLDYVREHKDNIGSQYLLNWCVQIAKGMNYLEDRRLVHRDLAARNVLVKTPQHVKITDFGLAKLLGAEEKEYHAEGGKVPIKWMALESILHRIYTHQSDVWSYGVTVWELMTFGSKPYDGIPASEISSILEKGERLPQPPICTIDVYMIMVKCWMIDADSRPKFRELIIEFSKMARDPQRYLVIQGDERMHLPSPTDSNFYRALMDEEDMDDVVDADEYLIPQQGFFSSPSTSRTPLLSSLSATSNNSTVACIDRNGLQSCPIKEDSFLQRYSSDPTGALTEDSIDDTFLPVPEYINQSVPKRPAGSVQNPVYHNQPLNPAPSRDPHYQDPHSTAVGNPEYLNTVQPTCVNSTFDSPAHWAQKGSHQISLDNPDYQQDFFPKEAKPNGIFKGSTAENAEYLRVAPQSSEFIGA
T3 sequence (P00533 25-1210 T790M/L858R): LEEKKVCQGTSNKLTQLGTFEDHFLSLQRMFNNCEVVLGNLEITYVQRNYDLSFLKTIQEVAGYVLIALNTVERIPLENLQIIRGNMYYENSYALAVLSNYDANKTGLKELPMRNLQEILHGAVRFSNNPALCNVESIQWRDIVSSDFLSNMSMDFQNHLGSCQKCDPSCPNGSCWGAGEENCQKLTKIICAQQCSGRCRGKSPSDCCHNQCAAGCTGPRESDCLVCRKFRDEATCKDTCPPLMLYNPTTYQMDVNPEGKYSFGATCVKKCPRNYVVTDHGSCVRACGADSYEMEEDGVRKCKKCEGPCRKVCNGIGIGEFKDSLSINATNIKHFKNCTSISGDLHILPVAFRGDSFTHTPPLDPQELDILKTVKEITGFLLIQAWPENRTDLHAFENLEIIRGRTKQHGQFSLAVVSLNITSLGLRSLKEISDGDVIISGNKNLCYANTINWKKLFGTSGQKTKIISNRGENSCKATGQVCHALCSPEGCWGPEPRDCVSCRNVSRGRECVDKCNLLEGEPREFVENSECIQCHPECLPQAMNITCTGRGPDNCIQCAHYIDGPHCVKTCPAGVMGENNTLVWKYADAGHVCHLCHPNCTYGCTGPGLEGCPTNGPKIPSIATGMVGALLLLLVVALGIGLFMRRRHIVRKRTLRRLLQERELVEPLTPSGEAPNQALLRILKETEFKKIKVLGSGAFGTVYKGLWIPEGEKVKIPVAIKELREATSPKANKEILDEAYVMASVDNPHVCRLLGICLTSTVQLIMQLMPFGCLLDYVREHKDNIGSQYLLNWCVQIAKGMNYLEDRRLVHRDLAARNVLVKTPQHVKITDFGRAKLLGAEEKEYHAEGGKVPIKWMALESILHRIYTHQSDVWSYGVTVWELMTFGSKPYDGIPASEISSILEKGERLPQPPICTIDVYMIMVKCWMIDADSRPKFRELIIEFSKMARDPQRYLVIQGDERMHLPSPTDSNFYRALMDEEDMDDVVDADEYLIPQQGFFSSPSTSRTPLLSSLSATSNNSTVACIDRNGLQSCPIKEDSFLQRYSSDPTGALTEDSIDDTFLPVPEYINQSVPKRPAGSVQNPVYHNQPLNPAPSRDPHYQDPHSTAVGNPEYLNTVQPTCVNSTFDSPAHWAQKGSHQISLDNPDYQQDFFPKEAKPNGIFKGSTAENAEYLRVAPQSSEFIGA
T1 sequence (P00533 25-1210 T790M/L858R): as above

Row | Ki [1] [nM] | Ki [2] [nM] | EC50 [3] [nM] | EC50 [4] [nM] | SMILES
1 | 1.8 | 2.1 | 941 | 2200 | CCC(C)n1nc(N2CC[C@H](C(N)=O)C2)c2cnc(Nc3ccnc(N4CCC(C)(O)CC4)n3)cc21 (stereo partly drawn) [Example 144, (3S)-1-(1-sec-Butyl-6-(2-(4-hydroxy-4-methylpiperidin-1-yl)pyrimidin-4-ylamino)-1H-pyrazolo[4,3-c]pyridin-3-yl)pyrrolidine-3-carboxamide]
2 | 1.5 | 1.2 | 25.5 | 283 | CC(C)n1nc(N2CC(C(=O)N3CC4CCC(C3)O4)C2)c2cnc(Nc3ccnc(-c4cnn(S(=O)(=O)C5CC5)c4)n3)cc21 [Example 168, 8-Oxa-3-azabicyclo[3.2.1]octan-3-yl(1-(6-(2-(1-(cyclopropylsulfonyl)-1H-pyrazol-4-yl)pyrimidin-4-ylamino)-1-isopropyl-1H-pyrazolo[4,3-c]pyridin-3-yl)azetidin-3-yl)methanone]
3 | 1.4 | 1.2 | 731 | > 10000 | CC(C)n1nc(N2CC(C(=O)NC3CC(O)C3)C2)c2cnc(Nc3ccnc(-c4cnn(S(=O)(=O)C5CC5)c4)n3)cc21 (stereo not shown) [Example 170, 1-(6-(2-(1-(Cyclopropylsulfonyl)-1H-pyrazol-4-yl)pyrimidin-4-ylamino)-1-isopropyl-1H-pyrazolo[4,3-c]pyridin-3-yl)-N-(3-hydroxycyclobutyl)azetidine-3-carboxamide]
4 | 2.7 | 9 | 287 | 831 | CC(C)n1nc(N2CC[C@@H](O)C2)c2cnc(Nc3ccnc(N4CCC(C)(O)CC4)n3)cc21 [Example 205, (R)-1-(4-((3-(3-Hydroxypyrrolidin-1-yl)-1-isopropyl-1H-pyrazolo[4,3-c]pyridin-6-yl)amino)pyrimidin-2-yl)-4-methylpiperidin-4-ol]
5 | 3.1 | 6.1 | 288 | 649 | C[C@@H](n1nc(N2CC[C@@H](O)C2)c2cnc(Nc3ccnc(N4CC[C@](C)(O)[C@H](F)C4)n3)cc21)C(F)(F)F (racemic) [Example 140, (3RS,4SR)-3-Fluoro-1-(4-(3-((R)-3-hydroxypyrrolidin-1-yl)-1-((R*)-1,1,1-trifluoropropan-2-yl)-1H-pyrazolo[4,3-c]pyridin-6-ylamino)pyrimidin-2-yl)-4-methylpiperidin-4-ol]
6 | 1 | 3.1 | 44.9 | 208 | CCC(C)n1nc(N2CCNC2=O)c2cnc(Nc3ccnc(N4CC[C@H](O)[C@H](F)C4)n3)cc21 (stereo partly drawn) [Example 195, 1-(1-(sec-Butyl)-6-((2-((3R,4S)-3-fluoro-4-hydroxypiperidin-1-yl)pyrimidin-4-yl)amino)-1H-pyrazolo[4,3-c]pyridin-3-yl)imidazolidin-2-one]
7 | 0.7 | 0.6 | 54.3 | 650 | CNC(=O)C1CN(c2nn(C(C)C)c3cc(Nc4ccnc(-c5cnn(S(=O)(=O)C6CC6)c5)n4)ncc23)C1 [Example 161, 1-(6-(2-(1-(Cyclopropylsulfonyl)-1H-pyrazol-4-yl)pyrimidin-4-ylamino)-1-isopropyl-1H-pyrazolo[4,3-c]pyridin-3-yl)-N-methylazetidine-3-carboxamide]
8 | 1.5 | 1.5 | 230 | 630 | CC(C)n1nc(N2CCC(O)C2=O)c2cnc(Nc3ccnc(-c4cnn(S(=O)(=O)C5CC5)c4)n3)cc21 (stereo in doubt) [Example 199, (S)-1-(6-((2-(1-(Cyclopropylsulfonyl)-1H-pyrazol-4-yl)pyrimidin-4-yl)amino)-1-isopropyl-1H-pyrazolo[4,3-c]pyridin-3-yl)-3-hydroxypyrrolidin-2-one]

More lines, now with the values behind:

Row | SMILES | Ki [1] [nM] | Ki [2] [nM] | EC50 [3] [nM] | EC50 [4] [nM]
9 | CC[C@@H](C)n1nc(N2CC3(COC3)C2)c2cnc(Nc3ccnc(OCC(C)(C)S(C)(=O)=O)n3)cc21 [Example 96, [1-((R)-sec-Butyl)-3-(2-oxa-6-azaspiro[3.3]hept-6-yl)-1H-pyrazolo[4,3-c]pyridin-6-yl]-[2-(2-methanesulfonyl-2-methylpropoxy)pyrimidin-4-yl]amine] | 4.6 | 17.2 | 387 | 1240
10 | CC(C)n1nc(N2CC(CO)C2)c2cnc(Nc3ccnc(-c4cnn(S(=O)(=O)C5CC5)c4)n3)cc21 [Example 63, (1-(6-(2-(1-(cyclopropylsulfonyl)-1H-pyrazol-4-yl)pyrimidin-4-ylamino)-1-isopropyl-1H-pyrazolo[4,3-c]pyridin-3-yl)azetidin-3-yl)methanol] | < 0.6 | 0.5 | 18.5 | 271
11 | CC(Nc1nn(C(C)C)c2cc(Nc3ccnc(-c4cnn(S(=O)(=O)C5CC5)c4)n3)ncc12)C(N)=O (stereo not shown) [Example 109, 2-(6-(2-(1-(Cyclopropylsulfonyl)-1H-pyrazol-4-yl)pyrimidin-4-ylamino)-1-isopropyl-1H-pyrazolo[4,3-c]pyridin-3-ylamino)propanamide] | 1.8 | 1.3 | 788 | 4620
12 | CC(C)n1nc(N2CCS(=N)(=O)CC2)c2cnc(Nc3ccnc(-c4cnn(S(=O)(=O)C5CC5)c4)n3)cc21 [Example 111, 4-(6-((2-(1-(Cyclopropylsulfonyl)-1H-pyrazol-4-yl)pyrimidin-4-yl)amino)-1-isopropyl-1H-pyrazolo[4,3-c]pyridin-3-yl)-1-iminothiomorpholine 1-oxide] | 1.7 | 1 | 560 | 949
13 | CC(C)n1nc(N2CC(N)CC2=O)c2cnc(Nc3ccnc(N4CCC(C)(O)CC4)n3)cc21 (stereo not shown) [Example 86, 4-Amino-1-(6-(2-(4-hydroxy-4-methylpiperidin-1-yl)pyrimidin-4-ylamino)-1-isopropyl-1H-pyrazolo[4,3-c]pyridin-3-yl)pyrrolidin-2-one] | 13.3 | 29.1 | 1940 | > 10000
14 | CC(C)n1nc(N2CCOC(CO)C2)c2cnc(Nc3ccnc(-c4cnn(S(=O)(=O)C5CC5)c4)n3)cc21 (stereo not shown) [Example 53, (4-(6-(2-(1-(cyclopropylsulfonyl)-1H-pyrazol-4-yl)pyrimidin-4-ylamino)-1-isopropyl-1H-pyrazolo[4,3-c]pyridin-3-yl)morpholin-2-yl)methanol] | 1.2 | 0.9 | 53.6 | 241
15 | CC[C@@H](C)n1nc(N2CC3(COC3)C2)c2cnc(Nc3ccnc(N4CC[C@](C)(O)[C@H](F)C4)n3)cc21 (single isomer, unassigned) [Example 67, (3R*,4S*)-1-{4-[1-((R)-sec-Butyl)-3-(2-oxa-6-azaspiro[3.3]hept-6-yl)-1H-pyrazolo[4,3-c]pyridin-6-ylamino]pyrimidin-2-yl}-3-fluoro-4-methylpiperidin-4-ol] | 3.9 | 11.1 | 257 | 1160
16 | COC1CCN(c2nccc(Nc3cc4c(cn3)c(N3CC5(COC5)C3)nn4C(C)C)n2)CC1F (racemic) [Example 23, (±)-2-(cis-3-Fluoro-4-methoxypiperidin-1-yl)pyrimidin-4-yl]-[1-isopropyl-3-(2-oxa-6-azaspiro[3.3]hept-6-yl)-1H-pyrazolo[4,3-c]pyridin-6-yl]amine] | 1.1 | 3.9 | 23.1 | 248
17 | CC(C)n1nc(N2CC[C@H](O)C2)c2cnc(Nc3ccnc(-c4cnn(S(=O)(=O)C5CC5)c4)n3)cc21 [Example 123, (S)-1-(6-(2-(1-(Cyclopropylsulfonyl)-1H-pyrazol-4-yl)pyrimidin-4-ylamino)-1-isopropyl-1H-pyrazolo[4,3-c]pyridin-3-yl)pyrrolidin-3-ol] | 0.6 | 0.6 | 4.4 | 201
18 | COC1CCN(c2nccc(Nc3cc4c(cn3)c(N)nn4C[C@H]3CC[C@H](N)CC3)n2)CC1 [Example 24, 1-(4-(Aminocyclohexyl)methyl)-N^6-[2-(4-methoxypiperidin-1-yl)-pyrimidin-4-yl]-1H-pyrazolo[4,3-c]pyridine-3,6-diamine] | 9.2 | 9.8 | 2060 | > 10000
19 | CCC(C)n1nc(N2CC(O)(CO)C2)c2cnc(Nc3ccnc(N4CCC(C)(O)CC4)n3)cc21 (racemic) [Example 80, (±)-1-(4-(1-sec-Butyl-3-(3-hydroxy-3-(hydroxymethyl)azetidin-1-yl)-1H-pyrazolo[4,3-c]pyridin-6-ylamino)pyrimidin-2-yl)-4-methylpiperidin-4-ol] | 4.1 | 9.4 | 4370 | > 10000
